Data reported in patent publication US10876088B2, “Modular organ microphysiological system with integrated pumping, leveling, and sensing” (Massachusetts Institute of Technology, priority 2016, dated 2020).

How the values were obtained:
[1] = system: hepatocyte-Kupffer cocultured liver MPS; experiment: Hydrocortisone effect on cocultured liver MPS; format: cell-based, human
Experimental: (§1) Metabolic and immunologically competent 3D cryopreserved human hepatocytes and kupffer cells were cocultured.
The secretions of interleukin 6 (IL-6) and tumor necrosis factor alpha (TNFα) of the cocultured liver MPS were measured. The reproducibility of IL-6 response to LPS stimulus was determined. A physiologically-relevant (relatively low) level of cortisol was used in the common media.

[2] = system: immune-competent liver MPS (hepatocytes and Kupffer cells)
Experimental: as §1
An immune-competent liver MPS model was prepared and studied.

endometrium MPS = experiment: Drug toxicity in endometrium MPS; format: cell-based
Experimental: An exemplary endometrium model of cell culture system in a […]® on the MPS platform includes hydrogel encapsulating stromal cells and epithelial cells on top surface of the hydrogel were cultured on the apical side of the […]®. […] The cell line used was Ishikawa human stage 1 adenocarincoma cell line, which were estrogen and progesterone receptor positive, polarized in matrigel (Chitcholtan et al., Exp Cell Research, (2013)) or functionalized PEG gels, and had low/variable secretion of glycodelin. […] The cell line used was human tert-immortalized cell line (tHESC), which was highly proliferative and stable, had low/variable secretion of prolactin or IGF-BP1 without strong decidualization cues, and could be quiesced in PEG gels.
An endometrium MPS model was prepared and studied.

[3] = system: immune-competent gut-liver interacted MPS; experiment: Gut-liver 2-way MPS, tolcapone added to gut ("oral"); format: cell-based, human
Experimental: Tolcapone was added to the gut MPS to mimick “oral” administration. Metrics were an volume-weighted average from the 3 media compartments: Signalsystemic=Signalapical, gut*Vapical, gut+Signalbasal, gut*Vbasal, gut+Signalliver*Vliver.

[4] = system: immune-competent gut MPS (Caco2, HT29-MTX, dendritic cells)
[5] = system: hepatocyte-Kupffer cell co-cultures; experiment: LPS stimulus of hepatocyte-Kupffer co-cultures; format: cell-based, human
[6] = oral, in vivo; read-out: maximum measured plasma concentration, Cmax; cited from earlier work
[7] = human, in vivo
7-way MPS platform = system: 7-way MPS platform
Experimental: The 7-way platform include gut (immune-competent), liver (immune-competent), lung, endometrium, cardiac, brain, and pancreas MPSs, and was assessed for survivability and function over a 3-week period. Each MPS was differentiated or matured in isolation prior to the interaction study. Platforms were run at a systemic flow rate of Qmix=10 mL/day, with flow partitioning. During the medium changes, a basal common medium was used for the gut, lung, liver, and endometrium MPSs, while the new MPS were supplied with their preferred maintenance media. Each basal medium was then allowed to mix throughout the course of the interaction, with media changes at 48-hour intervals. Functionality of each MPS was evaluated every 2-4 days up to 3 weeks, in comparison to isolated MPSs to benchmark the non-interacting MPS functions.

## C[C@]12CCC(=O)C=C1CC[C@@H]1[C@@H]2[C@@H](O)C[C@@]2(C)[C@H]1CC[C@]2(O)C(=O)CO [Hydrocortisone]
[1]; 21 day cultures
  CYP450 activity dependence on hydrocortisone levels: sensitive
[1]; cocultured liver MPS
  differentiated function: enhanced differentiated function
  inflammatory response: suppressed inflammatory response

## Cc1ccc(C(=O)c2cc(O)c(O)c([N+](=O)[O-])c2)cc1 [Tolcapone]
[2]; immune-competent liver MPS
  cell death: caused cell death
  mitochondrial activity: decreased mitochondrial activity
Endometrium MPS
  loss of function and cellular death: loss of function correlating with cellular death
[3]
  generic cell death marker: insensitive
  gut and liver function: MPS-specific loss of function
[3]; MPS-specific markers
  cell death markers: suffered from MPS-specific cell death markers
[4]
  cell death: severe cellular death
  epithelial barrier integrity / epithelial function: complete loss of epithelial function

## Lipopolysaccharide
[5]
  lowest LPS stimulus to which co-cultures were responsive: ≥ 0.01 µg/mL

## O=C(O)Cc1ccccc1Nc1c(Cl)cccc1Cl [Diclofenac, diclofenac]
[6]
  Cmax: 2 to 6 µM
[2]
  liver functions: impaired liver functions
[2]; immune-competent liver MPS
  cell death: cell death was minimal
[7]
  free drug elimination per cell rate constant: 1.76×10^−10 (cell*min)^−1
Endometrium MPS
  loss of function and cellular death: loss of function correlating with cellular death
7-way MPS platform
  absorption and distribution across MPS compartments: absorbed across the gut epithelial barrier
7-way MPS platform; human
  unbound intrinsic clearance CL_int(u): 13.90 µL/min
